assay: Inhibitory activity against yeast aldehyde dehydrogenase (AIDH)

IC50 [µM] | SMILES
> 1000 | CON(c1ccccc1)S(=O)(=O)c1ccccc1 [N-Methoxy-N-phenyl-benzenesulfonamide]
64.3 | CCOC(=O)ON(c1ccccc1)S(=O)(=O)c1ccccc1 [N-[(ethoxycarbonyl)oxy]-N-phenylbenzenesulfonamide]
38.3 | COC(=O)ON(c1ccccc1)S(=O)(=O)c1ccccc1 [N-[(methoxycarbonyl)oxy]-N-phenylbenzenesulfonamide]
35.6 | CCOC(=O)ON(C(=O)OCC)S(C)(=O)=O [ethyl (ethoxycarbonyl)oxy(methylsulfonyl)carbamate]
20.9 | COC(=O)ON(C(=O)OC)S(C)(=O)=O [methyl (methoxycarbonyl)oxy(methylsulfonyl)carbamate]

SMILES | IC50 [µM]
CC(=O)ON(C(C)=O)S(C)(=O)=O [N-Acetoxy-N-acetyl-methanesulfonamide] | 1000
CC(=O)ON(c1ccccc1)S(=O)(=O)c1ccccc1 [N-Acetoxy-N-phenyl-benzenesulfonamide] | 36
O=Nc1ccccc1 [NOB] | 2.5
